Columns and labels:
S. aureus DSM 20231 [1] = assay: fitness (endpoint OD595 vs no drug) (fraction); higher = more growth
Summary of the method: (§1)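 Fitness was defined as the optical density at the transition into stationary phase relative to the robust mean of no-drug control wells. Values were capped at 1. Cultures were started at OD595 0.01 in 384-well plates (30 µl, or 55 µl for S. pneumoniae) in TSB, LB Lennox or CY at 37 °C. OD595 was recorded every 30 min over 14 h, with the first reading subtracted as background.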

B. subtilis 168 [2] = assay: Bliss interaction score (quartile over a dose matrix) (fitness difference); higher = more antagonism (negative = synergy)
Summary of the method: (§2)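 Growth in each well was taken as OD595 at entry into stationary phase. Dividing by the plate's robust no-drug mean and capping at 1 gave fitness, and single-drug fitness was inferred from the combination data. The Bliss score, observed minus product-expected fitness, is summarised by quartiles over technical, biological and donor/recipient replicates.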

S. aureus DSM 20231 [3] = assay: as above
Summary of the method: as §2

S. aureus Newman [4] = assay: as above
Summary of the method: as §2

S. pneumoniae D39V [5] = assay: as above
Summary of the method: as §2

B. subtilis 168 [6] = assay: fitness (endpoint OD595 vs no drug) (fraction); higher = more growth
Summary of the method: as §1

S. aureus Newman [7] = assay: as above
Summary of the method: as §1

S. pneumoniae D39V [8] = assay: as above
Summary of the method: as §1
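Throughout, for Bliss interaction score (quartile over a dose matrix): first quartile when negative (synergy) and third quartile when positive (antagonism).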

COc1cc(Cc2cnc(N)nc2N)cc(OC)c1OC [Trimethoprim] + CN[C@H](CC(C)C)C(=O)N[C@H]1C(=O)N[C@@H](CC(N)=O)C(=O)N[C@H]2C(=O)N[C@H]3C(=O)N[C@H](C(=O)N[C@H](C(=O)O)c4cc(O)cc(O)c4-c4cc3ccc4O)[C@H](O)c3ccc(c(Cl)c3)Oc3cc2cc(c3O[C@@H]2O[C@H](CO)[C@@H](O)[C@H](O)[C@H]2O[C@H]2C[C@](C)(N)[C@H](O)[C@H](C)O2)Oc2ccc(cc2Cl)[C@H]1O [Vancomycin]
S. aureus DSM 20231 [1], first compound 0.125 µg/mL, one replicate
Details	fitness
partner 0.1875 µg/mL	0.667
partner 0.375 µg/mL	0.898
partner 0.75 µg/mL	0.984

fitness, S. aureus DSM 20231 [1]
Details	first compound 0.25 µg/mL	first compound 0.5 µg/mL	first compound 1 µg/mL
partner 0.1875 µg/mL	0.604	0.0644	0.0331
partner 0.375 µg/mL	0.613	–	0.0412
partner 0.75 µg/mL	0.62	–	0.0581

Details	Bliss interaction score
B. subtilis 168 [2]	0.0634
S. aureus DSM 20231 [3]	-0.0623
S. aureus Newman [4]	-0.0768
S. pneumoniae D39V [5]	0.119

O=C(O[C@@H]1Cc2c(O)cc(O)cc2O[C@@H]1c1cc(O)c(O)c(O)c1)c1cc(O)c(O)c(O)c1 [EGCG] + CN[C@@H]1[C@H](O[C@H]2[C@H](O[C@H]3[C@H](O)[C@@H](O)[C@H](N=C(N)N)[C@@H](O)[C@@H]3N=C(N)N)O[C@@H](C)[C@]2(O)C=O)O[C@@H](CO)[C@H](O)[C@H]1O [Streptomycin]
fitness
Details	first compound 6.25 µg/mL	first compound 12.5 µg/mL	first compound 25 µg/mL	first compound 50 µg/mL
B. subtilis 168 [6], partner 2 µg/mL	0.918	–	0.325	–
B. subtilis 168 [6], partner 4 µg/mL	0.823	0.718	0.299	–
B. subtilis 168 [6], partner 8 µg/mL	–	0.522	–	–
S. aureus Newman [7], partner 1 µg/mL	–	0.774	0.773	0.713
S. aureus Newman [7], partner 2 µg/mL	–	0.772	0.767	0.747
S. aureus Newman [7], partner 4 µg/mL	–	–	0.453	–
S. pneumoniae D39V [8], partner 2 µg/mL	–	0.887	0.933	0.937
S. pneumoniae D39V [8], partner 4 µg/mL	–	0.902	0.914	0.968
S. pneumoniae D39V [8], partner 8 µg/mL	–	0.881	0.943	0.981

S. pneumoniae D39V [8], partner 16 µg/mL, one replicate
Details	fitness
first compound 12.5 µg/mL	0.756
first compound 25 µg/mL	0.759
first compound 50 µg/mL	0.762

Details	Bliss interaction score
B. subtilis 168 [2]	0.303
S. aureus DSM 20231 [3]	0.136
S. aureus Newman [4]	0.0695
S. pneumoniae D39V [5]	0.0781

CCC[C@@H]1C[C@@H](C(=O)N[C@@H]([C@H]2O[C@H](SC)[C@H](O)[C@@H](O)[C@H]2O)[C@H](C)Cl)N(C)C1 [Clindamycin] + CC(C1CCC(C(O1)OC2C(CC(C(C2O)OC3C(C(C(CO3)(C)O)NC)O)N)N)N)NC [Gentamicin]
fitness, one replicate, main component drawn
Details	first compound 0.0039 µg/mL	first compound 0.0078 µg/mL	first compound 0.0156 µg/mL	first compound 0.0312 µg/mL	first compound 0.0625 µg/mL	first compound 0.125 µg/mL
B. subtilis 168 [6], partner 0.0625 µg/mL	0.962	0.911	0.828	–	–	–
B. subtilis 168 [6], partner 0.125 µg/mL	0.995	0.938	0.839	–	–	–
B. subtilis 168 [6], partner 0.25 µg/mL	0.94	0.867	0.791	–	–	–
S. aureus Newman [7], partner 0.375 µg/mL	–	–	–	0.709	0.55	0.138
S. aureus Newman [7], partner 0.75 µg/mL	–	–	–	0.705	0.542	0.177
S. aureus Newman [7], partner 1.5 µg/mL	–	–	–	0.576	0.254	0.119

main component drawn
Details	fitness
B. subtilis 168 [6], first compound 0.0625 µg/mL, partner 0.0625 µg/mL	0.52
B. subtilis 168 [6], first compound 0.125 µg/mL, partner 0.0625 µg/mL	0.397
B. subtilis 168 [6], first compound 0.125 µg/mL, partner 0.25 µg/mL	0.0596
B. subtilis 168 [6], first compound 0.25 µg/mL, partner 0.25 µg/mL	0.0604
S. aureus Newman [7], first compound 0.0312 µg/mL, partner 0.5 µg/mL	0.839
S. aureus Newman [7], first compound 0.0312 µg/mL, partner 2 µg/mL	0.988
S. pneumoniae D39V [8], first compound 0.0125 µg/mL, partner 2 µg/mL	0.781
S. pneumoniae D39V [8], first compound 0.0125 µg/mL, partner 4 µg/mL	0.812
S. pneumoniae D39V [8], first compound 0.0125 µg/mL, partner 8 µg/mL	0.768
S. pneumoniae D39V [8], first compound 0.015 µg/mL, partner 2 µg/mL	0.732
S. pneumoniae D39V [8], first compound 0.015 µg/mL, partner 4 µg/mL	0.698
S. pneumoniae D39V [8], first compound 0.015 µg/mL, partner 8 µg/mL	0.63
S. pneumoniae D39V [8], first compound 0.025 µg/mL, partner 2 µg/mL	0.528
S. pneumoniae D39V [8], first compound 0.025 µg/mL, partner 4 µg/mL	0.513
S. pneumoniae D39V [8], first compound 0.025 µg/mL, partner 8 µg/mL	0.454
S. pneumoniae D39V [8], first compound 0.03 µg/mL, partner 2 µg/mL	0.454
S. pneumoniae D39V [8], first compound 0.03 µg/mL, partner 4 µg/mL	0.425
S. pneumoniae D39V [8], first compound 0.03 µg/mL, partner 8 µg/mL	0.405
S. pneumoniae D39V [8], first compound 0.05 µg/mL, partner 2 µg/mL	0.239
S. pneumoniae D39V [8], first compound 0.05 µg/mL, partner 4 µg/mL	0.254
S. pneumoniae D39V [8], first compound 0.05 µg/mL, partner 8 µg/mL	0.224
S. pneumoniae D39V [8], first compound 0.06 µg/mL, partner 2 µg/mL	0.299
S. pneumoniae D39V [8], first compound 0.06 µg/mL, partner 4 µg/mL	0.249
S. pneumoniae D39V [8], first compound 0.06 µg/mL, partner 8 µg/mL	0.244

main component drawn
Details	Bliss interaction score
B. subtilis 168 [2]	0.192
S. aureus DSM 20231 [3]	0.0691
S. aureus Newman [4]	0.148
S. pneumoniae D39V [5]	-0.0694

COc1c(N2C[C@@H]3CCCN[C@@H]3C2)c(F)cc2c(=O)c(C(=O)O)cn(C3CC3)c12 [Moxifloxacin] + CN(C)c1cc(NC(=O)CNC(C)(C)C)c(O)c2c1C[C@H]1C[C@H]3[C@H](N(C)C)C(O)=C(C(N)=O)C(=O)[C@@]3(O)C(O)=C1C2=O [Tigecycline]
fitness
Details	partner 0.039 µg/mL	partner 0.078 µg/mL	partner 0.156 µg/mL	partner 0.65 µg/mL	partner 1.3 µg/mL	partner 2.6 µg/mL
B. subtilis 168 [6], first compound 0.0312 µg/mL	0.0412	0.0391	0.0455	–	–	–
B. subtilis 168 [6], first compound 0.0625 µg/mL	0.0348	0.0627	0.0465	–	–	–
B. subtilis 168 [6], first compound 0.125 µg/mL	0.0497	0.0447	0.0454	–	–	–
B. subtilis 168 [6], first compound 2 µg/mL	0.0218	0.034	0.0374	–	–	–
B. subtilis 168 [6], first compound 4 µg/mL	0.0264	0.0295	0.0361	–	–	–
B. subtilis 168 [6], first compound 8 µg/mL	0.008	0.0149	0.0156	–	–	–
S. aureus Newman [7], first compound 0.0075 µg/mL	0.764	0.761	0.773	–	–	–
S. aureus Newman [7], first compound 0.03 µg/mL	0.0791	0.0794	0.113	–	–	–
S. pneumoniae D39V [8], first compound 0.0037 µg/mL	–	–	–	0.945	0.955	0.852
S. pneumoniae D39V [8], first compound 0.005 µg/mL	–	–	–	0.931	0.929	0.909
S. pneumoniae D39V [8], first compound 0.0075 µg/mL	–	–	–	0.937	0.94	0.905
S. pneumoniae D39V [8], first compound 0.01 µg/mL	–	–	–	0.965	0.946	0.932
S. pneumoniae D39V [8], first compound 0.015 µg/mL	–	–	–	0.932	0.929	0.901
S. pneumoniae D39V [8], first compound 0.02 µg/mL	–	–	–	0.835	0.94	0.971

fitness, B. subtilis 168 [6], one replicate
Details	first compound 0.0312 µg/mL	first compound 0.0625 µg/mL	first compound 0.125 µg/mL
partner 0.125 µg/mL	0.402	0.0347	0.0119
partner 0.25 µg/mL	0.325	0.0048	0.0005
partner 0.5 µg/mL	0.372	0.0104	0.0203

Details	Bliss interaction score
B. subtilis 168 [2]	-0.0275
S. aureus DSM 20231 [3]	-0.0652
S. aureus Newman [4]	-0.0557
S. pneumoniae D39V [5]	0.0824
